# Assays:
# [1] = molecular target: T1, CCR5 (Homo sapiens, UniProt P51681); assay: CCR5 binding assay ([125I]-MIP-1β displacement)
# T1 construct: expressed in transfected cells; host or cells: CHO-K1
# Procedure: CCR5 binding assay was performed under the following conditions, according to a method that was adapted from the literature [Samson et al., J. Biol. Chem., 272, 24934-41 (1997)].
# Thus, Compound 8 was incubated for 2 hours at 25° C. in 50 mM HEPES, pH7.4 containing 1 mM CaCl2, 0.5% BSA, 5 mM MgCl2 and 1% DMSO with Human recombinant CHO-K1 cells in the presence of 0.1 nM [^125I]-MIP-1β, where MIP-1β is Macrophage Inflammatory Protein 1β.
# [2] = molecular target: T2, CCR1 (Homo sapiens, UniProt P32246); assay: CCR1 binding assay ([125I]-MIP-1α displacement)
# T2 construct: expressed in transfected cells; host or cells: CHO-K1
# T2 sequence (P32246 1-355): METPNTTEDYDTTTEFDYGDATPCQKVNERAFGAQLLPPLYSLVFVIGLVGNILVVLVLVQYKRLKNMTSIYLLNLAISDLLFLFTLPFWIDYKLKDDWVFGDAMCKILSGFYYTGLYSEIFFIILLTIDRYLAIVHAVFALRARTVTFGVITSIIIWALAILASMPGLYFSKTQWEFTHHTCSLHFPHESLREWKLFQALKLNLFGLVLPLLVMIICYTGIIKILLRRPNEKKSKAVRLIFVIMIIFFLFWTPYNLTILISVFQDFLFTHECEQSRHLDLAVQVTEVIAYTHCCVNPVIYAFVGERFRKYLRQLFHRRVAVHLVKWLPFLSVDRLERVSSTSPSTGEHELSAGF
# Procedure: The CCR1 binding assay was performed under the following conditions, according to a method that was adapted from the literature [Ben-Baruch et al., J. Biol. Chem., 270(38), 22123-8 (1995); Pease et al., J. Biol. Chem., 273(32), 19972-6 (1998)].
# Thus, Compound 8 was incubated for 3 hours at 25° C. in 50 mM HEPES, pH7.4 containing 1 mM CaCl2, 0.5% BSA, 5 mM MgCl2 and 1% DMSO with Human recombinant CHO-K1 cells in the presence of 0.02 nM [^125I]-MIP-1α. MIP-1α is Macrophage Inflammatory Protein 1α (ligand of CCR1 and CCR5).
# [3] = molecular target: T3, CCR2B (Homo sapiens, UniProt P41597); assay: CCR2B binding assay ([125I]-MCP-1 displacement)
# T3 construct: expressed in transfected cells; host or cells: CHO-K1
# T3 sequence (P41597 1-360 isoform P41597-2): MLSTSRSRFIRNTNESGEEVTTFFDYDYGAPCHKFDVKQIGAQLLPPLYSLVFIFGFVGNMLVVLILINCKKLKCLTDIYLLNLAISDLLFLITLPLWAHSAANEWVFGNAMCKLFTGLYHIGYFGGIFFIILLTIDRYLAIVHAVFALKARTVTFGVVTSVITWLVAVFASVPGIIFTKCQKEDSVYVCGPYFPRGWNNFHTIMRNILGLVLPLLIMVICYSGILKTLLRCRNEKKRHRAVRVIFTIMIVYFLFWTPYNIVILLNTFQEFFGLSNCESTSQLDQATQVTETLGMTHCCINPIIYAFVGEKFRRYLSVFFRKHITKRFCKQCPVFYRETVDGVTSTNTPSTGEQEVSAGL
# Procedure: CCR2B binding assay was performed under the following conditions, according to a method that was adapted from the literature [Gong et al., J. Biol. Chem., 272, 11682-5 (1997); Moore et al., J. Leukoc. Biol., 62, 911-5 (1997)].
# Thus, Compound 8 was incubated for 1 hour at 25° C. in 25 mM HEPES, pH7.4 containing 1 mM CaCl2, 0.5% BSA, 5 mM MgCl2, 0.1% NaN3 and 1% DMSO with Human recombinant CHO-K1 cells in the presence of 0.1 nM [^125I]-MCP-1. MCP-1 is monocyte chemoattractant protein (the ligand of CCR2).
# [4] = Parallel Artificial Membrane Permeability Assay (PAMPA); type: in vitro ADME; conditions: prediction of blood brain barrier penetration by passive diffusion, high Pe>4.0×10^-06, low Pe<2.0×10^-06 cm/sec
# Procedure: The permeability of the CCR compounds was measured in a Parallel Artificial Membrane Permeability Assay (PAMPA) which gives a prediction of the blood brain barrier penetration by passive diffusion [Di et al, Eur. J. Med. Chem., 38(3), 223-232 (2003)].
# The commonly accepted classification ranges for this PAMPA assay are as follows: • High predicted passive BBB permeation: Pe>4.0×10^−06 cm/sec. • Low predicted passive BBB permeation: Pe<2.0×10^−06 cm/sec.
# Uncertain prediction of BBB permeation: 2.0×10^−06 cm/sec<Pe<4.0×10^−06 cm/sec.
# T1 sequence (P51681 whole entry): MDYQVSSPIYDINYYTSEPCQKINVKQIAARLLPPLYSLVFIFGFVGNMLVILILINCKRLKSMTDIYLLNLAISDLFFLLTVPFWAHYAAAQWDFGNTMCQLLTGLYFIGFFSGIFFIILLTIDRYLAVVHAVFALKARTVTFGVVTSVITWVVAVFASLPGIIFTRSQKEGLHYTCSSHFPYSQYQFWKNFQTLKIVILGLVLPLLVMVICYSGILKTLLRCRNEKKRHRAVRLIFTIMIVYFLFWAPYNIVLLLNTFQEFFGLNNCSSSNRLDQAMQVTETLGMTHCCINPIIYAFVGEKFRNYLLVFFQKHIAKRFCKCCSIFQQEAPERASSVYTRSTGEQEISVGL
compound,measurement,setting,value
Cc1ccc(N(CCCN2CCC(Cc3ccc(F)cc3)CC2)C(=O)C2CCN(C(=O)CF)CC2)cc1Cl [Compound 8],Ki,[1],0.79 nM
same,selectivity for CCR5 over CCR1 and CCR2B (in words),[1]; compared with CCR1 and CCR2B binding at 10 μM,selective for CCR5
same,CCR5 binding (in words),[1]; summary statement of Example 6,high affinity
same,inhibition at 10 µM,"[2]; 10 μM Compound 8, Human recombinant CHO-K1 cells, 0.02 nM [125I]-MIP-1α, 3 hours at 25° C.",32%
same,CCR1 binding (in words),[2]; summary statement of Example 6,does not bind
same,inhibition of the binding of MCP-1 to CCR2B,"[3]; 10 μM concentration, Human recombinant CHO-K1 cells, 0.1 nM [125I]-MCP-1, 1 hour at 25° C.",did not inhibit
same,CCR2B binding (in words),[3]; summary statement of Example 6,does not bind
same,Papp,[4],6.8 ×10⁻⁶ cm/s

# Reference: patent US20130129626A1, “IN VIVO IMAGING AGENTS” (H[…] LIMITED, priority 2006, published 2013)
